Experimental data: patent US12252524B2, “GIP/GLP1 co-agonist compounds” (Eli Lilly and Company, priority 2018, dated 2025)
Numbered stars: 1 amine (or outer) side, 2 acyl side, 3 side chain; on linkers, the order of the positions; unused ones are H or OH. Square brackets hold non-standard residues; d marks the D form. Side chains are listed from the residue outwards. Peptide text beside a SMILES is read from it. * marks the point of attachment. C20 diacid = O=C(O)CCCCCCCCCCCCCCCCCCC(=O)*; αMePhe(2-F) = C[C@](N)(Cc1ccccc1F)C(=O)O; γGlu = O=C(O)[C@H](CCC(=O)[*:2])N[*:1]; αMeF = C[C@](N)(Cc1ccccc1)C(=O)O; αMeL = CC(C)C[C@](C)(N)C(=O)O; AEEA = NCCOCCOCC(=O)O; Aib = CC(C)(N)C(=O)O

Assays:
human GLP-1R = human GLP-1R (Homo sapiens, UniProt P43220); assay: [125I]-GLP-1 binding (SPA), human GLP-1 receptor; set-up: expressed in transfected cells; crude membranes; settings: read-out: hGLP1R Ki, (nM) (SEM, n)
Chain of human GLP-1R (P43220 24-463): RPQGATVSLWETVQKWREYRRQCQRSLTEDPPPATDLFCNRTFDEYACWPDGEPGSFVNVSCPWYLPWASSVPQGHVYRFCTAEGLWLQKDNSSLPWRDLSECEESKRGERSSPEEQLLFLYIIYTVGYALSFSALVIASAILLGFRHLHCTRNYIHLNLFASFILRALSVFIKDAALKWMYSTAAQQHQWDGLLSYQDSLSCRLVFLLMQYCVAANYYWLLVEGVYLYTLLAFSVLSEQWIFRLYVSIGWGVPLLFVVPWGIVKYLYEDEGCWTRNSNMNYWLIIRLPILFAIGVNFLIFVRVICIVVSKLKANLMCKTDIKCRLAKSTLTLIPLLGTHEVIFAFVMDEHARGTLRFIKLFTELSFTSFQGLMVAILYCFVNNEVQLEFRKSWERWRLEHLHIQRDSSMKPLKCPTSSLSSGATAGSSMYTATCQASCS
Method in brief: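 Membranes: hypotonic lysis (50 mM Tris HCl, pH 7.5, protease inhibitors), Potter-Elvehjem homogenization, high-speed pellet (35000×g 1 h or 25000×g 30 min, 4° C.). Buffer: 25 mM HEPES pH 7.4, 2.5 mM CaCl2, 1 mM MgCl2. Four-parameter IC50 fit; Ki as geometric mean ± SEM.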

[1] = target: T1, gastric inhibitory peptide receptor (GIPR) (Homo sapiens, UniProt P48546); assay: cAMP pharmacological functional assay in presence of casein, hGIPR; format: cell-based; settings: HEK293 cells expressing hGIPR, 0.1% Casein, geometric mean; read-out: hGIPR cAMP Rel EC50 nM (SEM, n)
T1 sequence (P48546 22-466): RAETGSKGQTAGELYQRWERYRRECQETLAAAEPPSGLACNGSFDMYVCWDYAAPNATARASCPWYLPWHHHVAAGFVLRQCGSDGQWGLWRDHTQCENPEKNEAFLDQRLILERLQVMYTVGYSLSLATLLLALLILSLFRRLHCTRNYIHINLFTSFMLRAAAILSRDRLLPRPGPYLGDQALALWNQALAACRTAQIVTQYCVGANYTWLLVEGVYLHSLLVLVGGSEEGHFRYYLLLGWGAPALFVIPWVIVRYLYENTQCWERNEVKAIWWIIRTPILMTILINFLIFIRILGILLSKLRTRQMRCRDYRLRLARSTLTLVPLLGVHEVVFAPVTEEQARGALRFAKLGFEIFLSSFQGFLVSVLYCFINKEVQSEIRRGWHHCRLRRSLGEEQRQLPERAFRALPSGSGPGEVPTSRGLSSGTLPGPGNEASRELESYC

human Gcg receptor = target: T2, human Gcg receptor (Homo sapiens, UniProt P47871); assay: [125I]-Glucagon binding (SPA), human Gcg receptor; settings: read-out: hGLcgR Ki, nM (SEM, n)
T2 construct: expressed in transfected cells; crude membranes
T2 sequence (P47871 26-477): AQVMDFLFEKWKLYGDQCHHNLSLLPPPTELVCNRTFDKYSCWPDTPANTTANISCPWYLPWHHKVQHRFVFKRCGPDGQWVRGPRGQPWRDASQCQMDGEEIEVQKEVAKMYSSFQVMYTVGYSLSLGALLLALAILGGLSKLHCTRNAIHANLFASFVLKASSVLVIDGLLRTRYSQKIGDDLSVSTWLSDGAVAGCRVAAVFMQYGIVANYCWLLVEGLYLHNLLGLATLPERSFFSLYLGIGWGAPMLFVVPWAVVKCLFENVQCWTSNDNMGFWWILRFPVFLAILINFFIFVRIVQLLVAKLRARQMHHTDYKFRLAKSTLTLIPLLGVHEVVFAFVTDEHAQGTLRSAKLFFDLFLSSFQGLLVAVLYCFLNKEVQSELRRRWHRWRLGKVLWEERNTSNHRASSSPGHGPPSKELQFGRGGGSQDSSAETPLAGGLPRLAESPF
Method in brief: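 Scintillation counts are taken after membranes and WGA beads incubate and settle for 12 hours at room temperature. Buffer is 25 mM HEPES, pH 7.4, with CaCl2, MgCl2, bacitracin and Tween-20. Ki values, from four-parameter IC50 fits, are geometric means over independent days.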

[2] = target: human GLP-1 receptor (GLP-1R) (Homo sapiens, UniProt P43220); assay: cAMP pharmacological functional assay in presence of casein, hGLP-1R; format: cell-based; settings: HEK293 cells expressing hGLP-1R, 0.1% Casein, geometric mean; read-out: hGLP1R cAMP Rel EC50 nM (SEM, n)
Chain of human GLP-1 receptor (GLP-1R) (P43220 24-463): as the sequence (P43220 24-463) above

human GIP receptor = target: T3, human GIP receptor (Homo sapiens, UniProt P48546); assay: [125I]-GIP binding (SPA), human GIP receptor; settings: read-out: hGIPR Ki, nM (SEM, n)
T3 construct: expressed in transfected cells; crude membranes
T3 sequence (P48546 22-466): T1 sequence (P48546 22-466)

SMILES | Ki (human GLP-1R) [nM] | EC50 [1] [nM] | Ki (human Gcg receptor) [nM] | EC50 [2] [nM] | Ki (human GIP receptor) [nM]
CC[C@H](C)[C@H](NC(=O)[C@H](CC(C)C)NC(=O)[C@H](Cc1ccc(O)cc1)NC(=O)[C@H](CCC(=O)O)NC(=O)[C@@H](NC(=O)[C@H](Cc1ccccc1)NC(=O)[C@H](C)NC(=O)C(C)(C)NC(=O)[C@H](CCC(N)=O)NC(=O)[C@H](C)NC(=O)[C@H](CCCCNC(=O)COCCOCCNC(=O)CC[C@H](NC(=O)[C@H]1CC[C@H](CNC(=O)CCCCCCCCCCCCCCCCCCC(=O)O)CC1)C(=O)O)NC(=O)[C@H](CCCCN)NC(=O)[C@H](CC(=O)O)NC(=O)[C@H](CC(C)C)NC(=O)[C@H](CC(C)C)NC(=O)[C@@H](NC(=O)[C@H](CO)NC(=O)[C@H](Cc1ccc(O)cc1)NC(=O)[C@H](CC(=O)O)NC(=O)[C@H](CO)NC(=O)[C@@H](NC(=O)[C@H](Cc1ccccc1)NC(=O)[C@@H](NC(=O)CNC(=O)[C@H](CCC(=O)O)NC(=O)C(C)(C)NC(=O)[C@@H](N)Cc1ccc(O)cc1)[C@@H](C)O)[C@@H](C)O)[C@@H](C)CC)[C@@H](C)CC)C(=O)N[C@@H](CCC(=O)O)C(=O)NCC(=O)NCC(=O)N1CCC[C@H]1C(=O)N[C@@H](CO)C(=O)N[C@@H](CO)C(=O)NCC(=O)N[C@@H](C)C(=O)N1CCC[C@H]1C(=O)N1CCC[C@H]1C(=O)N1CCC[C@H]1C(=O)N[C@@H](CO)C(N)=O [Example 110] | 4.38 | 0.218 | 73.9 | 0.179 | 0.0395
CC[C@H](C)[C@H](NC(=O)[C@H](CC(C)C)NC(=O)[C@H](Cc1ccc(O)cc1)NC(=O)[C@H](CCC(=O)O)NC(=O)[C@@H](NC(=O)[C@H](Cc1ccccc1)NC(=O)[C@H](C)NC(=O)C(C)(C)NC(=O)[C@H](CCC(N)=O)NC(=O)[C@H](C)NC(=O)[C@H](CCCCNC(=O)COCCOCCNC(=O)COCCOCCNC(=O)CC[C@H](NC(=O)CCCCCCCCCCCCCCCCCCC(=O)O)C(=O)O)NC(=O)[C@H](CCC(=O)O)NC(=O)[C@H](CC(=O)O)NC(=O)[C@H](CC(C)C)NC(=O)[C@](C)(CC(C)C)NC(=O)[C@@H](NC(=O)[C@H](CO)NC(=O)[C@H](Cc1ccc(O)cc1)NC(=O)[C@H](CC(=O)O)NC(=O)[C@H](CO)NC(=O)[C@@H](NC(=O)[C@](C)(Cc1ccccc1)NC(=O)[C@@H](NC(=O)CNC(=O)[C@H](CCC(=O)O)NC(=O)C(C)(C)NC(=O)[C@@H](N)Cc1ccc(O)cc1)[C@@H](C)O)[C@@H](C)O)[C@@H](C)CC)[C@@H](C)CC)C(=O)N[C@@H](CCC(=O)O)C(=O)NCC(=O)NCC(=O)N1CCC[C@H]1C(=O)N[C@@H](CO)C(=O)N[C@@H](CO)C(=O)NCC(=O)N[C@@H](C)C(=O)N1CCC[C@H]1C(=O)N1CCC[C@H]1C(=O)N1CCC[C@H]1C(=O)N[C@@H](CO)C(N)=O [Example 115] (H-Y[Aib]EGT[αMeF]TSDYSI[αMeL]LDEK([AEEA-AEEA-γGlu-C20 diacid])AQ[Aib]AFIEYLIEGGPSSGAPPPS-NH2) | 3.43 | 0.102 | 9.89 | 0.088 | 0.0302
CC[C@H](C)[C@H](NC(=O)[C@H](CC(C)C)NC(=O)[C@H](Cc1ccc(O)cc1)NC(=O)[C@H](CCC(=O)O)NC(=O)[C@@H](NC(=O)[C@H](Cc1ccccc1)NC(=O)[C@H](CCC(=O)O)NC(=O)C(C)(C)NC(=O)[C@H](CCC(N)=O)NC(=O)[C@H](C)NC(=O)[C@H](CCCCNC(=O)COCCOCCNC(=O)COCCOCCNC(=O)CC[C@H](NC(=O)CCCCCCCCCCCCCCCCCCC(=O)O)C(=O)O)NC(=O)[C@H](CCC(=O)O)NC(=O)[C@H](CC(=O)O)NC(=O)[C@H](CC(C)C)NC(=O)[C@](C)(CC(C)C)NC(=O)[C@@H](NC(=O)[C@H](CO)NC(=O)[C@H](Cc1ccc(O)cc1)NC(=O)[C@H](CC(=O)O)NC(=O)[C@H](CO)NC(=O)[C@@H](NC(=O)[C@](C)(Cc1ccccc1)NC(=O)[C@@H](NC(=O)CNC(=O)[C@H](CCC(=O)O)NC(=O)C(C)(C)NC(=O)[C@@H](N)Cc1ccc(O)cc1)[C@@H](C)O)[C@@H](C)O)[C@@H](C)CC)[C@@H](C)CC)C(=O)N[C@@H](CCC(=O)O)C(=O)NCC(=O)NCC(=O)N1CCC[C@H]1C(=O)N[C@@H](CO)C(=O)N[C@@H](CO)C(=O)NCC(=O)N[C@@H](C)C(=O)N1CCC[C@H]1C(=O)N1CCC[C@H]1C(=O)N1CCC[C@H]1C(=O)N[C@@H](CO)C(N)=O [Example 116] (H-Y[Aib]EGT[αMeF]TSDYSI[αMeL]LDEK([AEEA-AEEA-γGlu-C20 diacid])AQ[Aib]EFIEYLIEGGPSSGAPPPS-NH2) | 6.8 | 0.0867 | 137 | 0.0703 | 0.0597
CC[C@H](C)[C@H](NC(=O)[C@H](CC(C)C)NC(=O)[C@H](Cc1ccc(O)cc1)NC(=O)[C@H](CCC(=O)O)NC(=O)[C@@H](NC(=O)[C@H](Cc1ccccc1)NC(=O)[C@H](C)NC(=O)C(C)(C)NC(=O)[C@H](CCC(N)=O)NC(=O)[C@H](C)NC(=O)[C@H](CCCCNC(=O)COCCOCCNC(=O)COCCOCCNC(=O)CC[C@H](NC(=O)CCCCCCCCCCCCCCCCCCC(=O)O)C(=O)O)NC(=O)[C@H](CCC(=O)O)NC(=O)[C@H](CC(=O)O)NC(=O)[C@H](CC(C)C)NC(=O)C(C)(C)NC(=O)[C@@H](NC(=O)[C@H](CO)NC(=O)[C@H](Cc1ccc(O)cc1)NC(=O)[C@H](CC(=O)O)NC(=O)[C@H](CO)NC(=O)[C@@H](NC(=O)[C@](C)(Cc1ccccc1)NC(=O)[C@@H](NC(=O)CNC(=O)[C@H](CCC(=O)O)NC(=O)C(C)(C)NC(=O)[C@@H](N)Cc1ccc(O)cc1)[C@@H](C)O)[C@@H](C)O)[C@@H](C)CC)[C@@H](C)CC)C(=O)N[C@@H](CCC(=O)O)C(=O)NCC(=O)NCC(=O)N1CCC[C@H]1C(=O)N[C@@H](CO)C(=O)N[C@@H](CO)C(=O)NCC(=O)N[C@@H](C)C(=O)N1CCC[C@H]1C(=O)N1CCC[C@H]1C(=O)N1CCC[C@H]1C(=O)N[C@@H](CO)C(N)=O [Example 117] (H-Y[Aib]EGT[αMeF]TSDYSI[Aib]LDEK([AEEA-AEEA-γGlu-C20 diacid])AQ[Aib]AFIEYLIEGGPSSGAPPPS-NH2) | 6.96 | 0.0648 | 192 | 0.0615 | 0.0497
CC[C@H](C)[C@H](NC(=O)[C@H](CC(C)C)NC(=O)[C@H](Cc1ccc(O)cc1)NC(=O)[C@H](CCC(=O)O)NC(=O)[C@@H](NC(=O)[C@H](Cc1ccccc1)NC(=O)[C@H](CCC(=O)O)NC(=O)C(C)(C)NC(=O)[C@H](CCC(N)=O)NC(=O)[C@H](C)NC(=O)[C@H](CCCCNC(=O)COCCOCCNC(=O)COCCOCCNC(=O)CC[C@H](NC(=O)CCCCCCCCCCCCCCCCCCC(=O)O)C(=O)O)NC(=O)[C@H](CCC(=O)O)NC(=O)[C@H](CC(=O)O)NC(=O)[C@H](CC(C)C)NC(=O)[C@](C)(CC(C)C)NC(=O)[C@@H](NC(=O)[C@H](CO)NC(=O)[C@H](Cc1ccc(O)cc1)NC(=O)[C@H](CC(=O)O)NC(=O)[C@H](CO)NC(=O)[C@@H](NC(=O)[C@](C)(Cc1ccccc1F)NC(=O)[C@@H](NC(=O)CNC(=O)[C@H](CCC(=O)O)NC(=O)C(C)(C)NC(=O)[C@@H](N)Cc1ccc(O)cc1)[C@@H](C)O)[C@@H](C)O)[C@@H](C)CC)[C@@H](C)CC)C(=O)N[C@@H](CCC(=O)O)C(=O)NCC(=O)NCC(=O)N1CCC[C@H]1C(=O)N[C@@H](CO)C(=O)N[C@@H](CO)C(=O)NCC(=O)N[C@@H](C)C(=O)N1CCC[C@H]1C(=O)N1CCC[C@H]1C(=O)N1CCC[C@H]1C(=O)N[C@@H](CO)C(N)=O [Example 118] (H-Y[Aib]EGT[αMePhe(2-F)]TSDYSI[αMeL]LDEK([AEEA-AEEA-γGlu-C20 diacid])AQ[Aib]EFIEYLIEGGPSSGAPPPS-NH2) | 6.1 | 0.0538 | 53 | 0.0588 | 0.0859
